From US20260060947A1 (INSTITUT PASTEUR DE MONTEVIDEO, priority 2019, published 2026)
Where “and” joins values, the source holds several entries; their conditions need not be identical. Identical values can stand only once.

Legend:
NF-κB = assay: TNFα-induced NF-κB activation in HT-29 NF-κB reporter cell line (flow cytometry); format: cell-based; conditions: BANA 10, 20, 30 μM, BA 30 μM, DMF 30 μM before TNFα
Procedure: The effects of BANA on LPS- or TNFα-induced NF-κB activation were also assayed in cell cultures of BV2 microglial cell line and primary adult microglia isolated from symptomatic SOD1^G93A rats, and HT-29 NF-κB reporter cell line, respectively.

[1] = test system: murine BV2 microglial cell line; assay: Cell viability / toxicity by sulforhodamine B assay; format: cell-based
Procedure: (§1) The murine BV2 microglial cell line was used to analyze the toxicity and anti-inflammatory effects of BANA. Baseline cell viability was established in murine microglia cell line BV2 by sulforhodamine B assay. Briefly, cells were plated in a 96-multiwell plate and incubated with different concentrations of BANA (5-110 μM) for 24 h. After media removal, cells were washed twice with PBS pH=7.4. Cells were fixed with TCA for 1 hour at 4° C. and then washed five times with distilled water. 50 μL of sulforhodamine B 0.4% m/v in 1% acetic acid was added to each well and incubated 30 minutes at room temperature. After staining, the plate was washed at least five times with 1% acetic acid. Once the plate was dry the protein-bound dye was dissolved in 10 mM Tris and the absorbance at 570 nm was read using a microplate spectrophotometer (FIG. 3A).

[2] = as above; format: cell-based; conditions: mouse, BV2 microglial cells; BV2 cell culture; read-out: LC50
Procedure: as §1

[3] = BANA plasma levels by RP-HPLC after oral administration; format: in vivo, SOD1^G93A rats
Procedure: Only female transgenic rats showing weakness and gait alterations in the […] as the first clinical sign were selected for BANA treatment studies. Rats were divided randomly into BANA or vehicle-treated groups. BANA was freshly prepared in buffer phosphate (PB), and administrated daily at a dose of 100 mg/kg using a curved stainless steel gavage needle with 3-mm ball tip. Rats were treated from day-1 post-paralysis for 15 days or until end-stage when they were euthanized.
For the detection of BANA in plasma, experiments were performed using RP-HPLC analysis (Agilent 1200 HPLC system). Rats were sacrificed and plasma samples were obtained. 100 μL of plasma was incubated with HgCl2 (20 mM) at 37° C. for 30 minutes and after that extracted with 900 μL of acetonitrile (ACN) and injected into HPLC in a 20-40% gradient of B in 10 minutes. BANA plasma concentration was calculated from a standard curve using Salicylate as an internal standard. (CPAK C-18, […], 150 mm×3.9 mm I.D. column; A phase: H2O 0.1% Formic acid; B phase: ACN 0.1% Formic acid; detection at 300 nm)
Rates were dosed with 100 mg/kg/day of BANA administered orally.

With `O=C(O)c1ccc(/C=C/[N+](=O)[O-])cc1` [BANA, (E)-4-(2-nitrovinyl) benzoic acid] the “TNFα-induced NF-κB activation” value (NF-κB) was “potently prevented”, the IC50 ([1]; Mus musculus, BV-2, BV2 cells, BANA 5-110 μM, 24 h, sulforhodamine B) was 51.7 µM and the “toxicity to BV2 microglia” value ([1]; low micromolar concentrations) was “devoid of toxicity”. For the same compound, the CC50 at 24 h [2] was 50 µM, the “[BANA] in plasma, sample + HgCl2” value ([3]; SOD1^G93A symptomatic rats, 15 days oral daily 100 mg/kg, plasma incubated with HgCl2 (20 mM, 37° C., 30 min), 100 mg/kg) was 3.69 μm and 3.45 μm and 3.58 μm and the concentration at 15 days ([3]; female, SOD1^G93A transgenic, rat, plasma, po, 100 mg/kg, SOD1^G93A symptomatic rats, 15 days oral daily 100 mg/kg, plasma incubated with HgCl2 (20 mM, 37° C., 30 min), read-out: [BANA] in plasma, sample + HgCl2) was 3.29 µM. The “BANA plasma levels reached” value ([3]; rats, 100 mg/kg/day orally, HPLC) was 3.49 µM, the “fraction of plasma BANA covalently linked to proteins” value ([3]; rats, oral 100 mg/kg/day for 5 days) was “more than 90%” and the “plasma concentration after oral administration (in words)” value ([3]; rats, oral administration) was “low micromolar concentration”.
